Results on three compounds are retold here after patent US20060270708A1, “Novel process for preparation of isotonic aqueous injection of ropivacaine” (Navinta LLC, priority 2005, published 2006).

The conditions of data set [1]: racemate compared with either D or L isomer alone, U.S. Pat. No. 4,695,576; cited from earlier work.
The conditions of data set [2]: optically pure form compared to the racemic mixture of bupivacaine; cited from earlier work.
Data set [3] is described as follows: Hygroscopicity and stability of ropivacaine base and its salts. The format is physicochemical.
A short description of data set [4]: Content of ropivacaine base dissolved in the filtered solution, by HPLC against a control solution. It counts as physicochemical. To be noted: equimolar or less concentrated hydrochloric acid, even at about 60° C. The procedure:
Each resulting solution was warmed to about 50° C. and then cooled to room temperature with stirring for about 30 min., after which was added a suitable quantity of sodium chloride, and the total volume of each was made up to 25 mL. Osmolality of the filtered solution was determined using conventional freezing point osmometer. The pH of these solutions were in the range 3.2 to 3.5. The content of ropivacaine base dissolved in the solution was determined by HPLC against a control solution prepared by dissolving the same base in excess of hydrochloric acid.
Each resulting solution was warmed to about 50° C. with stirring for about 30 min., then cooled to room temperature, after which was added a suitable quantity of sodium chloride. The pH was then adjusted to 5.0 using sodium hydroxide solution, and then the volume was made up to 25 mL. The osmolality of the filtered solution was determined using conventional freezing point osmometer. The content of ropivacaine base dissolved in the solution was determined by HPLC against a control solution prepared by dissolving the same base in excess of hydrochloric acid.

The conditions of data set [5]: reported in U.S. Pat. No. 4,870,086; cited from earlier work.

Turning to `CCCCN1CCCCC1C(=O)Nc1c(C)cccc1C` (racemic) [bupivacaine, racemic N-n-butylpipecolic acid-2,6-xylidide], in data set [1], the analgesic effects result is recorded as “better analgesic effects”.
For `CCCN1CCCC[C@H]1C(=O)Nc1c(C)cccc1C` [ropivacaine base, (L) N-n-propylpipecolic acid-2,6-xylidide], in data set [2], the cardio-toxic potential entry was “reduced cardio-toxic potential”. In data set [3], the hygroscopicity result is “not hygroscopic” and the “stability compared with its hydrochloride or hydrochloride monohydrate salts” value is “much more stable”. Besides, in data set [4], the “dissolution in aqueous media” value is “did not yield a completely homogeneous solution”.
In the case of `CCCN1CCCC[C@H]1C(=O)Nc1c(C)cccc1C.Cl` [(L) N-n-propylpipecolic acid-2,6-xylidide hydrochloride], the hygroscopicity / stability entry in data set [5] was “hygroscopic and thus not stable”.
